Key:
[1] = pharmacokinetics of drospirenone; assay type: in vivo; details: i.e. after at most a week
Text: For example, in the present study, there was, a significant reduction of edema and breast tenderness among long-cycle users in comparison with the women on the conventional 21-day monthly cycle. Thus, in the event of these symptoms being present, a regimen of 42-126 days could be recommended.

[2] = Hershberger test; cited from earlier work
[3] = in vivo; cited from earlier work

SMILES: C[C@]12CCC(=O)C=C1[C@@H]1C[C@@H]1[C@H]1[C@@H]3[C@@H]4C[C@@H]4[C@@]4(CCC(=O)O4)[C@@]3(C)CC[C@@H]12 [drospirenone]
- time to steady state [1]: about four
- antiandrogenic properties compared with chlormadinone acetate [2]: exceed those of chlormadinone acetate
- antiandrogenic properties relative to cyproterone acetate [2]: approximately one-third
- half-life [3]: about 27 h
